Assay results as given in publication PMC5608804, “Stepwise Evolution Improves Identification of Diverse Peptides Binding to a Protein Target” (Scientific Reports, 2017).

Target: T1, streptavidin (Streptomyces avidinii, UniProt P22629)
T1 construct: purchased GE Healthcare (Little Chalfont, UK)
Test: Cy5-streptavidin binding on HotSpot discovery array, 5-mer L-peptide library
Conditions: for S/B: signal to background ratio
Excerpt: To identify hotspot sequences that bind to streptavidin (SA), we bound Cy5-SA to an array library of 2,476,099 5-mer L-peptides synthesized with 19 of 20 natural amino acids (excluding cysteine). The fluorescence signal intensity was aggregated across three independently synthesized arrays; then the 2,047 peptides with a signal-to-background ratio (S/B) >4 were selected. The data was further filtered to select 1,100 peptides for which signal intensities were highly correlated on all 3 arrays (the percentage of mean deviation to mean was <10%, see Supplementary dataset Table 2A). Most selected sequences (1,019 of 1,100) contained HP, PQ, or PM sequences: their presence would be expected in the well-known HPQ and HPM streptavidin binders[13]–[18].
The comprehensive peptide library included 2,476,099 5-mer peptides synthesized in a single copy with 19 of 20 L- or D-amino acids (excluding cysteine). Libraries were flanked on both N- and C-termini by linkers of 1 or 3 amino acids using a 3:1 glycine-serine mixture.
Cy5™-streptavidin (Cy5-SA) was purchased from GE Healthcare (Little Chalfont, UK). Freshly deprotected arrays were used in each experiment. Streptavidin binding to all arrays was performed with 0.5 µg/ml Cy5-SA either in binding buffer containing 10 mM Tris-HCl (pH 7.4), 1% alkali-soluble casein (EMD Millipore), 0.05% Tween-20 or in 10 mM Tris-HCl (pH 7.4), 4% BSA (Roche, Basel, Switzerland), 0.05% Tween-20 in a 30 mL PAP Jar container (Evergreen Scientific, Vernon, CA) overnight at 4° C. After incubation, arrays were washed in 20 mM Tris-HCl (pH 7.8), 0.2 M NaCl, 1% SDS or 1X TBS (pH 7.4) for 30 sec followed by a 1 min wash in water, and then dried by spinning in a microcentrifuge equipped with an array holder.
Cy5 fluorescence intensity of the arrays was measured with an MS200 scanner (Roche NimbleGen, Madison, WI) at resolution 2 µm, wavelength 635 nm, gain 25%, and laser intensity 100%. Cy5 signal intensities were extracted using Image Extraction Software (Roche NimbleGen). Data pre-processing, normalization, and statistical tests were performed using the language R. Data visualization and analysis was performed with the Spotfire 6.5.0 (Tibco, Boston, MA) software platform. Distance analysis and principle component analysis of distance matrices were performed with the R package PEPLIB[19].

[1] = average of three arrays, L-peptide 5-mer library
[2] = 5-mer L-peptide library array, Cy5-streptavidin
[3] = 5-mer L-peptide library array, Cy5-streptavidin, from the average of three arrays
[4] = 5-mer L-peptide library array, Cy5-streptavidin, from average of three arrays
[5] = 5-mer L-peptide library, from the average of three arrays

T1 sequence (P22629 25-183): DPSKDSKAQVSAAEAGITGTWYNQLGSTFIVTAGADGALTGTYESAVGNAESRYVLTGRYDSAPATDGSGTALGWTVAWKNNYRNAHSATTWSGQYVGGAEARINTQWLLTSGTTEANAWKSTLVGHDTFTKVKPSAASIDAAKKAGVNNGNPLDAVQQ

## FDTWL [L-amino acid 5-mer array peptide]
[1]
  S/B (signal to background ratio): 7.3
[2]
  S/B: 7.3

## FEHPQ
[3]
  S/B (signal to background ratio): 96.4

## FFHPM
[3]
  S/B (signal to background ratio): 89.2

## FFHPQ
[4]
  S/B (signal to background ratio): 192.2

## FFMIM [L-amino acid 5-mer array peptide]
[5]
  S/B (signal to background ratio): 5.1
[1]
  S/B (signal to background ratio): 5.1

## FFMMF [L-amino acid 5-mer array peptide]
[5]
  S/B (signal to background ratio): 4.3
[1]
  S/B (signal to background ratio): 4.3

## FHHPM
[3]
  S/B (signal to background ratio): 95.4

## FHHPQ
[4]
  S/B (signal to background ratio): 219.2

## FHPMF
[2]
  S/B: 14.7

## FHPMG
[3]
  S/B (signal to background ratio): 59.2

## FHPMM
[4]
  S/B (signal to background ratio): 24.3

## FHPMN
[4]
  S/B (signal to background ratio): 26.9

## FHPMS
[4]
  S/B (signal to background ratio): 46.0

## FHPMV
[4]
  S/B (signal to background ratio): 27.2

## FHPMW
[5]
  S/B (signal to background ratio): 5.1

## FHPQA
[4]
  S/B (signal to background ratio): 138.8

## FHPQE
[5]
  S/B (signal to background ratio): 5.1

## FHPQG
[4]
  S/B (signal to background ratio): 146.3

## FHPQK
[2]
  S/B: 14.2

## FHPQL
[2]
  S/B: 7.4

## FHPQM
[3]
  S/B (signal to background ratio): 58.1

## FHPQN
[4]
  S/B (signal to background ratio): 168.8

## FHPQP
[2]
  S/B: 6.3

## FHPQQ
[4]
  S/B (signal to background ratio): 49.0

## FHPQS
[3]
  S/B (signal to background ratio): 97.1

## FHPQT
[4]
  S/B (signal to background ratio): 34.8

## FHPQV
[3]
  S/B (signal to background ratio): 107.2

## FHPQW
[4]
  S/B (signal to background ratio): 22.2

## FHPQY
[4]
  S/B (signal to background ratio): 56.4

## FIHPM
[3]
  S/B (signal to background ratio): 68.2

## FIHPQ
[4]
  S/B (signal to background ratio): 152.7

## FKHPM
[4]
  S/B (signal to background ratio): 44.4

## FKHPQ
[4]
  S/B (signal to background ratio): 123.2

## FLGHP
[5]
  S/B (signal to background ratio): 4.2

## FLHHP
[2]
  S/B: 5.9

## FLHPM
[3]
  S/B (signal to background ratio): 84.7

## FLHPQ
[4]
  S/B (signal to background ratio): 145.5

## FMFMF [L-amino acid 5-mer array peptide]
[5]
  S/B (signal to background ratio): 4.2
[1]
  S/B (signal to background ratio): 4.2

## FMFMI [L-amino acid 5-mer array peptide]
[5]
  S/B (signal to background ratio): 4.3
[1]
  S/B (signal to background ratio): 4.3

## FMHPM
[3]
  S/B (signal to background ratio): 101.3

## FMHPQ
[4]
  S/B (signal to background ratio): 206.0

## FMPHP
[5]
  S/B (signal to background ratio): 5.0

## FNHPM
[3]
  S/B (signal to background ratio): 96.1

## FPHPQ
[4]
  S/B (signal to background ratio): 173.5

## FQHPQ
[4]
  S/B (signal to background ratio): 161.2

## FRHPM
[3]
  S/B (signal to background ratio): 89.2

## FRHPQ
[4]
  S/B (signal to background ratio): 211.5

## FSHPM
[3]
  S/B (signal to background ratio): 91.4

## FSHPQ
[4]
  S/B (signal to background ratio): 192.9

## FTHPM
[3]
  S/B (signal to background ratio): 86.0

## FTHPQ
[4]
  S/B (signal to background ratio): 177.7

## FVHPM
[3]
  S/B (signal to background ratio): 72.0

## FVHPQ
[4]
  S/B (signal to background ratio): 150.1

## FWHPQ
[4]
  S/B (signal to background ratio): 176.5

## FYHPM
[3]
  S/B (signal to background ratio): 99.8

## FYHPQ
[4]
  S/B (signal to background ratio): 202.7

## FYNFM [L-amino acid 5-mer array peptide]
[5]
  S/B (signal to background ratio): 4.7
[1]
  S/B (signal to background ratio): 4.7

## GAHPM
[4]
  S/B (signal to background ratio): 34.1

## GAHPQ
[4]
  S/B (signal to background ratio): 136.7

## GEHPM
[2]
  S/B: 14.8

## GEHPQ
[3]
  S/B (signal to background ratio): 63.7

## GFHPQ
[4]
  S/B (signal to background ratio): 181.0

## GGHPQ
[4]
  S/B (signal to background ratio): 124.2

## GHHPQ
[4]
  S/B (signal to background ratio): 149.8

## GHPMF
[2]
  S/B: 15.1

## GHPMG
[3]
  S/B (signal to background ratio): 65.8

## GHPMK
[5]
  S/B (signal to background ratio): 4.0

## GHPMM
[2]
  S/B: 11.7

## GHPMV
[4]
  S/B (signal to background ratio): 21.8

## GHPMW
[5]
  S/B (signal to background ratio): 4.4

## GHPMY
[2]
  S/B: 11.0

## GHPPQ
[5]
  S/B (signal to background ratio): 5.2

## GHPQA
[3]
  S/B (signal to background ratio): 110.5

## GHPQF
[4]
  S/B (signal to background ratio): 125.7

## GHPQG
[4]
  S/B (signal to background ratio): 135.5

## GHPQK
[2]
  S/B: 13.3

## GHPQM
[4]
  S/B (signal to background ratio): 40.8

## GHPQP
[5]
  S/B (signal to background ratio): 4.5

## GHPQV
[3]
  S/B (signal to background ratio): 97.6

## GHPQW
[2]
  S/B: 18.1

## GHPQY
[4]
  S/B (signal to background ratio): 40.1

## GIHPQ
[3]
  S/B (signal to background ratio): 100.2

## GKHPQ
[3]
  S/B (signal to background ratio): 73.5

## GLGYH [L-amino acid 5-mer array peptide]
[5]
  S/B (signal to background ratio): 4.6
[1]
  S/B (signal to background ratio): 4.6

## GLHPQ
[4]
  S/B (signal to background ratio): 132.8

## GMHPM
[4]
  S/B (signal to background ratio): 38.8

## GMHPQ
[4]
  S/B (signal to background ratio): 126.3

## GNHPQ
[4]
  S/B (signal to background ratio): 132.4

## GPHPQ
[4]
  S/B (signal to background ratio): 144.4

## GPMPD
[5]
  S/B (signal to background ratio): 4.4

## GQHPM
[4]
  S/B (signal to background ratio): 43.1

## GQHPQ
[4]
  S/B (signal to background ratio): 134.5

## GRHPM
[3]
  S/B (signal to background ratio): 62.1

## GRHPQ
[4]
  S/B (signal to background ratio): 136.4

## GSHPM
[4]
  S/B (signal to background ratio): 43.0

## GTHPQ
[4]
  S/B (signal to background ratio): 132.9

## GVHPM
[4]
  S/B (signal to background ratio): 31.6

## GWHPM
[3]
  S/B (signal to background ratio): 97.0

## GWHPQ
[4]
  S/B (signal to background ratio): 190.5

## GYWTD [L-amino acid 5-mer array peptide]
[1]
  S/B (signal to background ratio): 8.4
[2]
  S/B: 8.4

## HDHPM
[4]
  S/B (signal to background ratio): 51.4

## HDHPQ
[3]
  S/B (signal to background ratio): 112.6

## HEHPQ
[3]
  S/B (signal to background ratio): 76.5

## HFHPM
[3]
  S/B (signal to background ratio): 76.4

## HFHPQ
[4]
  S/B (signal to background ratio): 174.7

## HFPQN
[5]
  S/B (signal to background ratio): 4.1

## HGFPF
[5]
  S/B (signal to background ratio): 4.7
[1]
  S/B (signal to background ratio): 4.7

## HGFPT
[5]
  S/B (signal to background ratio): 4.2
[1]
  S/B (signal to background ratio): 4.2

## HGHPM
[3]
  S/B (signal to background ratio): 69.3

## HGHPQ
[4]
  S/B (signal to background ratio): 129.3

## HHHPM
[3]
  S/B (signal to background ratio): 67.1

## HHHPQ
[4]
  S/B (signal to background ratio): 143.8

## HHPGQ
[5]
  S/B (signal to background ratio): 4.3

## HHPMA
[3]
  S/B (signal to background ratio): 76.0

## HHPMF
[4]
  S/B (signal to background ratio): 19.8

## HHPMM
[2]
  S/B: 18.7

## HHPMN
[4]
  S/B (signal to background ratio): 25.7

## HHPMS
[4]
  S/B (signal to background ratio): 40.6

## HHPMY
[4]
  S/B (signal to background ratio): 20.0

## HHPQA
[4]
  S/B (signal to background ratio): 145.4

## HHPQF
[3]
  S/B (signal to background ratio): 110.3

## HHPQG
[3]
  S/B (signal to background ratio): 108.6

## HHPQI
[4]
  S/B (signal to background ratio): 19.7

## HHPQK
[2]
  S/B: 18.7

## HHPQL
[2]
  S/B: 5.7

## HHPQN
[4]
  S/B (signal to background ratio): 150.9

## HHPQQ
[4]
  S/B (signal to background ratio): 45.6

## HHPQR
[4]
  S/B (signal to background ratio): 35.2
